Seven molecules from publication PMC9186491, “Novel Small Molecule Tyrosine Kinase 2 Pseudokinase Ligands Block Cytokine-Induced TYK2-Mediated Signaling Pathways” (Frontiers in Immunology, 2022) can be followed below.

As usually defined, the Kd is the free concentration of one partner at which half of the binding sites on the other are occupied at equilibrium, for simple one-to-one binding. Read a high Kd as a looser complex. The term half-life denotes how long it takes for the measured level to halve. Low values mean rapid decline, high ones slow decline. For orientation: solubility means the dissolved amount per volume that the medium holds.

The target of data set [1] is T1, TYK2 JH2 pseudokinase domain (Homo sapiens, UniProt P29597).
T1 construct: purchased Eurofins DiscoverX Corporation (contract assay)
In words: KdELECT competition binding assay, TYK2 JH2. As to conditions: isolated TYK2 JH2 domain. The procedure:
(§1) The KdELECT competition assays were performed to test the binding affinity of compounds to the JH1 kinase region or JH2 pseudokinase region in TYK2 or JAK by ligand competition with JH1 or JH2 protein segments. The assay was carried out at Eurofins DiscoverX Corporation following the established standard protocol (DiscoverX, San Diego, CA). In this assay, compounds that bind to the kinase or pseudokinase protein regions prevent the protein binding to the immobilized ligand and reduce the amount of kinase matter captured on the solid surface. […] Dissociation constants (Kds) for test compound-kinase interactions are calculated by measuring the amount of kinase captured on the solid support as a function of the test compound concentration. […] The ligated beads were blocked with excess biotin and washed with blocking buffer to remove unbound ligand and to reduce nonspecific binding. […] All reactions were performed in polypropylene 384-well plates with a final volume of 20 μL. […] The beads were then re-suspended in the elution buffer and incubated at room temperature with shaking for 30 minutes. The kinase concentration in the eluant was measured by qPCR. Two replicates were performed and averaged to obtain the Kd measurement.

Data set [2] has as its system panel of 98 kinases. Put plainly: Kinome screening panel (DiscoverX scanEdge). Format: binding. The note with it: 1 µM; 91 non-mutant kinases. How it is done: For compound selectivity across a multi-kinase panel, compound binding affinity to each kinase or pseudokinase protein region was assessed using the DiscoverX scanEdge screening. Compounds were screened at a concentration of 1,000 nM in competition binding assays at Eurofins DiscoverX Corporation following the established standard protocol (DiscoverX, San Diego, CA), as described previously in the KdELECT competition binding assay. Competition with test compounds for binding to resin conjugated affinity ligand was employed to determine the “hits”, which are identified by measuring the amount of kinase captured in test versus control samples by using a quantitative PCR method that detects the associated DNA label. This measurement assesses compound selectivity against a panel of 98 kinases including kinases from the protein kinase A, G, and C family group (AGC), Ca^2+/calmodulin-dependent protein kinase class of enzymes (CAMK), group of cyclin-dependent kinase (CDK), mitogen-activated protein kinase (MAPK), glycogen synthase kinase (GSK) and CDC-like kinase (CLK) (CMGC), Casein kinase 1 (CK1), group of Ste 7, Ste 11 and Ste 20 kinases (STE), Tyrosine Kinases (TK), Tyrosine Kinase-Like group (TKL), lipid, and atypical kinase families, and other mutant forms.

Data set [3] addresses T2, TYK2 JH1 kinase domain (Homo sapiens, UniProt P29597).
T2 construct: purchased Eurofins DiscoverX Corporation (contract assay)
T2 sequence (P29597 897-1176 limits assumed): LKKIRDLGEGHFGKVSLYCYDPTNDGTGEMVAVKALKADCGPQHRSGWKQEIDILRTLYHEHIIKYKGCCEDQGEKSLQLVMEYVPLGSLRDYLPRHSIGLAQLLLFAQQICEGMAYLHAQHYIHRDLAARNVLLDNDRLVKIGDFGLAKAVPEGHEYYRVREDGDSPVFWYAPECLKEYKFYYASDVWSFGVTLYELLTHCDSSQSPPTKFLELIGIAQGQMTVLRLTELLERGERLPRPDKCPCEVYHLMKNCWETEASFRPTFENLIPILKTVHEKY
Put plainly: KdELECT competition binding assay, TYK2 JH1. As to conditions: isolated TYK2 JH1 domain. The procedure:
as §1

Data set [4] in a line: LM T1/2, H. The format is in vitro ADME. The note with it: human, liver microsomes. For orientation: Liver microsomes are a subcellular fraction often used to study metabolism.
A short description of data set [5]: LM T1/2, R. Format: in vitro ADME. As to conditions: rat, liver microsomes.
A short description of data set [6]: LM T1/2, M. The format is in vitro ADME. As to conditions: mouse, liver microsomes.
The nature of data set [7]: LM T1/2, D. Format: in vitro ADME. As to conditions: dog, liver microsomes.
Data set [8] can be described thus: LM T1/2, Mk. The format is in vitro ADME. As to conditions: monkey, liver microsomes.
Data set [9] in a line: Solubility (PBS/Fas/Fes). The format is physicochemical.
For data set [10], the target named is T3, CYP450 1A2 (Homo sapiens, UniProt P05177).
T3 sequence (P05177 1-516): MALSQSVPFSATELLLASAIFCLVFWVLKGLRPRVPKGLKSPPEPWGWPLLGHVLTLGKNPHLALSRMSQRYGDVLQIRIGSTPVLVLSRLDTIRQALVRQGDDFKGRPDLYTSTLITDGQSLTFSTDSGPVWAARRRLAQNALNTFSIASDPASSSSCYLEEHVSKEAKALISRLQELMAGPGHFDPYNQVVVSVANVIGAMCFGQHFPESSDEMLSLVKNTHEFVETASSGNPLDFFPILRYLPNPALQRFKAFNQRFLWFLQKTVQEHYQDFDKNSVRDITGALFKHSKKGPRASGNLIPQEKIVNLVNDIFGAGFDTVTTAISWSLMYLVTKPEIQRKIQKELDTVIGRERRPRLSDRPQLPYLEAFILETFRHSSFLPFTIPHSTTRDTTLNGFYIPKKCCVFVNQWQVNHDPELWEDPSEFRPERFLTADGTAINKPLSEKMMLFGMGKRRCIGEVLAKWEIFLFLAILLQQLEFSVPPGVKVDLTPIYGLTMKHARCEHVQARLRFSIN
In words: CYP450 inhibition, 1A2. Format: in vitro ADME.

For data set [11], the target named is CYP450 2C9 (Homo sapiens, UniProt P11712). In words: CYP450 inhibition, 2C9. The format is in vitro ADME.
The target of data set [12] is CYP450 2D6 (Homo sapiens, UniProt P10635). Put plainly: CYP450 inhibition, 2D6. The format is in vitro ADME.
The target of data set [13] is CYP450 3A4 (Homo sapiens, UniProt P08684). Put plainly: CYP450 inhibition, 3A4. Format: in vitro ADME. As to conditions: 3A4(m); read-out: CYP450 3A4(m).
Data set [14] addresses CYP450 2C19 (Homo sapiens, UniProt P33261). In words: CYP450 inhibition, 2C19. Format: in vitro ADME.
A short description of data set [15]: GSH. Format: in vitro ADME.
In data set [16] the test system is IFNα-induced TYK2/phosphoSTAT1 (Tyr701) in Kit225 T cells. In words: Kit225 T cell assay for IFNα-induced TYK2/phosphoSTAT1 activity. Format: cell-based, human. The note with it: Homo sapiens, KIT225, read-out: IC50 IFNα-induced-STAT1 Phosphorylation. The procedure:
The cells were treated with serially diluted compounds for 1 hour and stimulated with 80 ng/mL human recombinant IFNα (R&D Systems) for 15 minutes. The treated cells were then lysed and cellular phosphorylated-STAT1 (Tyr701) levels were measured by AlphaLISA (PerkinElmer, Cat#ALSU-PST1) according to the manufacturer’s instructions.

Data set [17] deals with IL23-induced TYK2/phosphoSTAT3 (Tyr705) in Kit225 T cells. In words: Kit225 T cell assay for IL23-induced TYK2/phosphoSTAT3 activity. Format: cell-based, human. The note with it: Homo sapiens, KIT225, read-out: IC50 IL23-induced-STAT3 Phosphorylation. The procedure:
The cells were treated with serially diluted compounds for 1 hour and stimulated with 100 ng/mL human recombinant IL23 (R&D Systems) for 20 minutes. The treated cells were then lysed and cellular phosphorylated-STAT3 (Tyr705) levels were measured by AlphaLISA (PerkinElmer, Cat# ALSU-PST3) according to the manufacturer’s instructions.

Data set [18] has as its system IFNα-induced CXCL10 production in human whole blood. Put plainly: IFNα-induced CXCL10 production in human whole blood. Format: cell-based. The procedure:
Human whole blood [drawn with Ethylenediaminetetraacetic acid (EDTA) as anti-coagulant] was obtained from Zen-Bio Inc. (Durham, NC). […] The plasma was collected for detection of C-X-C motif chemokine 10 (CXCL10, IP10) secretion. CXCL10 was measured by Human CXCL10/IP-10 AlphaLISA Kit (PerkinElmer, #AL259 C/F) according to the manufacturer’s instructions.

The mark [19] stands for this setting: Homo sapiens, read-out: IFNa-induced-CXCL10 Production in Human Whole Blood IC50, Average.
The mark [20] stands for this setting: Homo sapiens, read-out: IFNa-induced-CXCL10 Production in Human Whole Blood IC50, Donor 1.
The mark [21] stands for this setting: Homo sapiens, read-out: IFNa-induced-CXCL10 Production in Human Whole Blood IC50, Donor 2.
Setting [22] is: Homo sapiens, read-out: IFNa-induced-CXCL10 Production in Human Whole Blood IC50, Donor 3.

≈ marks a conversion by molar mass, not a printed value. Where two headings read alike, the source gives them in different places.

T1 sequence (P29597 589-875 limits assumed): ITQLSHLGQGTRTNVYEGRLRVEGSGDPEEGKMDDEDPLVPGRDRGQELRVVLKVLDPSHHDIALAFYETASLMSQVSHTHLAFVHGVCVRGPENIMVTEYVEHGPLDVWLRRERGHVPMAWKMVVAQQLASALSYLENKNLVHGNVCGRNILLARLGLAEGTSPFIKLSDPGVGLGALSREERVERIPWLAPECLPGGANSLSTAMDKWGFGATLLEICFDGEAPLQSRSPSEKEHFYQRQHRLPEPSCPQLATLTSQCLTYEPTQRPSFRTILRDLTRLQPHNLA
Chain of CYP450 2D6 (P10635 whole entry): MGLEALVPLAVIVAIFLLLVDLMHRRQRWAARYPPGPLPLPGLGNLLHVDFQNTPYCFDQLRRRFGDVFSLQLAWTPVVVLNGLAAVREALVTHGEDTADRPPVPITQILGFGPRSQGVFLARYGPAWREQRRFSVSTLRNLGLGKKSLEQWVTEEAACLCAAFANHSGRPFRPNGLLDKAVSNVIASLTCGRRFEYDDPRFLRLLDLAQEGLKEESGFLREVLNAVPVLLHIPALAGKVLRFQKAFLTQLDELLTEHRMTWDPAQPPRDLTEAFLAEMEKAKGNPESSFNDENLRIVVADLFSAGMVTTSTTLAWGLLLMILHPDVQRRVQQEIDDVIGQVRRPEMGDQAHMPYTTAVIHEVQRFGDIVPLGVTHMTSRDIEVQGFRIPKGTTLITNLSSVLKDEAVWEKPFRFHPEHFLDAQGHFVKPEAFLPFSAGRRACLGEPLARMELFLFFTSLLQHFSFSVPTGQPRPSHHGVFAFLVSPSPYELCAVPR
Chain of CYP450 3A4 (P08684 whole entry): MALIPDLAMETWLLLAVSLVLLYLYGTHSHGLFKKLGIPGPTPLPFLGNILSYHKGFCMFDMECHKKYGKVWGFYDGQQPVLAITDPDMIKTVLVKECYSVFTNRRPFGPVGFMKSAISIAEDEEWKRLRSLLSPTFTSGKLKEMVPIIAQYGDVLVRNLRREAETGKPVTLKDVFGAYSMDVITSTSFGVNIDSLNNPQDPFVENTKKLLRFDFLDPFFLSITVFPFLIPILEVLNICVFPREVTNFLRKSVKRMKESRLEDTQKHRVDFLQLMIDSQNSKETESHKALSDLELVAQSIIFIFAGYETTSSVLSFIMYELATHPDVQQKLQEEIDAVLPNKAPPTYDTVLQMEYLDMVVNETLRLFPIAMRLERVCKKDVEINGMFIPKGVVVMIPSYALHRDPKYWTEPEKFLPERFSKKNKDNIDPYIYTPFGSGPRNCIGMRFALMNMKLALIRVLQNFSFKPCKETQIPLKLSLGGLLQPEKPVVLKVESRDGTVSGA
Chain of CYP450 2C19 (P33261 whole entry): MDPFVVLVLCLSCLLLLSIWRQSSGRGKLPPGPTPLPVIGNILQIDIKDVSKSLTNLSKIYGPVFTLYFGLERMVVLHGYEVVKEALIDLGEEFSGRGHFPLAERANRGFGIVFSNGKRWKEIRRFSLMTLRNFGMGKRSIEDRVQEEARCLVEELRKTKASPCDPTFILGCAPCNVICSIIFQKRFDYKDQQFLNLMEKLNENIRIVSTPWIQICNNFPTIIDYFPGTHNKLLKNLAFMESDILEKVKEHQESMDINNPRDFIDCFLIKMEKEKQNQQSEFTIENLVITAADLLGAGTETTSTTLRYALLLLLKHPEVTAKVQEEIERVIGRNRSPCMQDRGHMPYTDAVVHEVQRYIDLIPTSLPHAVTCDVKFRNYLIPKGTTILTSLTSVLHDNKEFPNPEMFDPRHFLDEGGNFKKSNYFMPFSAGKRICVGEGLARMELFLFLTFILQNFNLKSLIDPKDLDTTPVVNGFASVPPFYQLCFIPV
Chain of CYP450 2C9 (P11712 whole entry): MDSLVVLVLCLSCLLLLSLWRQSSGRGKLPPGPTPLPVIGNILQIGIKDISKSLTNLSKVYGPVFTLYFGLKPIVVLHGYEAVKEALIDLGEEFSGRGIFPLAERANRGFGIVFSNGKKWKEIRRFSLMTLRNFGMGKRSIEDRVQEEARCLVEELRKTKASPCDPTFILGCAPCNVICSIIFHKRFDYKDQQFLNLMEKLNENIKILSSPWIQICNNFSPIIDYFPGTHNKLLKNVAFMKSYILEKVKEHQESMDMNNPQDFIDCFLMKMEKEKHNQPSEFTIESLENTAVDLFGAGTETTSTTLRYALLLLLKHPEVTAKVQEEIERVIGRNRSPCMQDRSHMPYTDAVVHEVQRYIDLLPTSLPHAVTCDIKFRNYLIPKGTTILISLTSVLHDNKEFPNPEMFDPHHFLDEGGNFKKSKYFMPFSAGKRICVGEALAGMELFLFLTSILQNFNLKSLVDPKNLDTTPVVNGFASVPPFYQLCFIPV

For the molecule `CNC(=O)c1cnc(Nc2ccc(N3CCC3)cn2)cc1Nc1ccccc1S(C)(=O)=O` [SHR1274], in data set [1], the Kd worked out at 0.053 nM. Besides, in [2], the “No. of Hits S (1)” value was found to be 1, the “No. of Hits S (10)” value is 1 and the “No. of Hits S (35)” value was found to be 2.
Turning to `CNC(=O)c1nnc(NC(=O)C2CC2)c2[nH]c(-c3ccccc3OC)cc12` [SHR2178], the results for the Kd in data set [1] and in [3] were 0.34 nM and > 20000 nM, respectively. Besides, the half-life in [4] worked out at 34 min; in data set [5], 24 min; in data set [6], 55 min; in [7] it was 40 min; in [8] it was 99 min. For the same molecule, the solubility worked out at 1.7 µM (≈ 0.621 µg/mL) in data set [9] (FaSSIF, read-out: Solubility, Fas); 3.5 µM (≈ 1.28 µg/mL) in data set [9] (FeSSIF (Fes [sic]), fessif, read-out: Solubility, Fes); 0.1 µM (≈ 0.0365 µg/mL) in [9] (PBS, aqueous buffer, read-out: Solubility, PBS). In addition, the IC50 was 4000 nM in data set [10]; 30000 nM in data set [11]; 30000 nM in data set [12]; 30000 nM in [13]; 30000 nM in [14]. In addition, the GSH result in [15] is given as “negative”.
Regarding `[2H]C([2H])([2H])NC(=O)c1nnc(NC(=O)C2CC2)cc1Nc1cccc(-c2nc3c(s2)CN(S(C)(=N)=O)C3)c1OC` (stereo not drawn) [SHR3110], the IC50 in [16] is 16 nM; in data set [17], 24 nM; in data set [18] (setting [19]) it was 570 nM; in data set [18] (setting [20]), 480 nM; in [18] (setting [21]), 710 nM; in [18] (setting [22]), 520 nM.
`N#CC[C@H](C1CCCC1)n1cc(-c2ncnc3[nH]ccc23)cn1` [Ruxolitinib]: the IC50 was 12 nM in data set [16]; 3 nM in data set [17]; 1900 nM in [18] (setting [19]); 2100 nM in data set [18] (setting [20]); 2800 nM in data set [18] (setting [21]); 740 nM in [18] (setting [22]).
Consider `CC[C@@H]1CN(C(=O)NCC(F)(F)F)C[C@@H]1c1cnc2cnc3[nH]ccc3n12` [Upadacitinib], for which the IC50 worked out at 7 nM in [16]; 22 nM in [17]; 120 nM in [18] (setting [19]); 130 nM in data set [18] (setting [20]); 110 nM in [18] (setting [21]); 130 nM in data set [18] (setting [22]).
With `O=C(Nc1nc2cccc(-c3ccc(CN4CCS(=O)(=O)CC4)cc3)n2n1)C1CC1` [Filgotinib], the IC50 in [16] came out at 250 nM; in data set [17], 3800 nM; in data set [18] (Homo sapiens; average of Donor 1-3; read-out: IFNa-induced-CXCL10 Production in Human Whole Blood IC50, Average) it was 730 nM; in [18] (Homo sapiens; read-out: IFNa-induced-CXCL10 Production in Human Whole Blood IC50, Donor 1), 770 nM; in data set [18] (Homo sapiens; read-out: IFNa-induced-CXCL10 Production in Human Whole Blood IC50, Donor 2) it was 790 nM; in data set [18] (Homo sapiens; read-out: IFNa-induced-CXCL10 Production in Human Whole Blood IC50, Donor 3), 630 nM.
As for `Cn1cc(-c2cn3nccc3c(-c3cnn([C@]4(CC#N)C[C@@H](C#N)C4)c3)n2)cn1` [Ropsacitinib], the IC50 in data set [18] (human whole blood, IFNα 16 hours; read-out: TYK2-associated IFNα-induced-CXCL10 Production in Human Whole Blood: IC50) is 2000 ± 960 nM.
